As a reminder, the Ki is a measure of affinity in units of concentration, obtained from inhibition or displacement. One may read the IC50 as the concentration that inhibits the measured activity by half. As a reminder, the half-life is the time needed for the level to fall by half in the phase considered. A high value points to slow loss.

From ChEMBL document CHEMBL6182941, “Prodrugs Targeting Prostate-Specific Membrane Antigen against Prostate Cancer” (J Med Chem, 2025) come the findings set out here.

In series [1] the target is T1, Glutamate carboxypeptidase 2 (Homo sapiens, UniProt Q04609). The experiment in a line: Binding affinity to human recombinant PSMA in LNCaP cells assessed as inhibition constant. Type of series: cell-based.
T1 sequence (Q04609 whole entry): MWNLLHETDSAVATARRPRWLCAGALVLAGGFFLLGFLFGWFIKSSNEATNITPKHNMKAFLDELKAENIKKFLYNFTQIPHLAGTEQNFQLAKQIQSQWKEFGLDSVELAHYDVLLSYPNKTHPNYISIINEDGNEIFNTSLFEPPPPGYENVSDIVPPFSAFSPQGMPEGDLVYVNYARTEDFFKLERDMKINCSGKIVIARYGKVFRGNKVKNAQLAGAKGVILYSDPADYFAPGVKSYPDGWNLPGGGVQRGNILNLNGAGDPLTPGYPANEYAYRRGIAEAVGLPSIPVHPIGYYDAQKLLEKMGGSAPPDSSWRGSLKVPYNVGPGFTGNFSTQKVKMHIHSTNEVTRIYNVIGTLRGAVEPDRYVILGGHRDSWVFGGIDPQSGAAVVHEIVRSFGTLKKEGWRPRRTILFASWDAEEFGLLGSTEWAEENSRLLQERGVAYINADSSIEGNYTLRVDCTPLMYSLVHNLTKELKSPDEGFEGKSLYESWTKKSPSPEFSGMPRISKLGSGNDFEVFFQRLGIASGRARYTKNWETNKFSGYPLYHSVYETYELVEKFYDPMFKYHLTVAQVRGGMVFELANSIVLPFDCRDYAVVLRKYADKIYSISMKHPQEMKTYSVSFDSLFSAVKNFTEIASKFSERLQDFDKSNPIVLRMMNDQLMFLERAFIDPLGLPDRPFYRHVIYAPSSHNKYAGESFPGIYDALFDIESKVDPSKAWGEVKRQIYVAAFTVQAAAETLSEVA
The target in series [2] is T2, N-acetylaspartylglutamate synthase A (Homo sapiens, UniProt Q8IXN7).
T2 sequence (Q8IXN7 whole entry): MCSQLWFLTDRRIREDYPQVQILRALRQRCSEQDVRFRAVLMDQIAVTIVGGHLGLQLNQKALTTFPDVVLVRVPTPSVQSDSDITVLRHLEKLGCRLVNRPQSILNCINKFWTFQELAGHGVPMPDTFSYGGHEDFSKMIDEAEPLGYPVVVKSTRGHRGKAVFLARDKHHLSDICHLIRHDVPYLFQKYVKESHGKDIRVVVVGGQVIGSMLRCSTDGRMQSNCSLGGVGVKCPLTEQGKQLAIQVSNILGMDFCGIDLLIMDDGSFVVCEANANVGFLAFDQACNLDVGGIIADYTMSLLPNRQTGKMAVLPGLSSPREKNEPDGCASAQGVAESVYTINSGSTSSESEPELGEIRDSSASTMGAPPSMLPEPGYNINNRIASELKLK
The experiment in a line: Binding affinity to NAAG synthetase A (unknown origin) assessed as inhibition constant.

Series [3] addresses N-acetylated-alpha-linked acidic dipeptidase 2 (Homo sapiens, UniProt Q9Y3Q0). Nature of the series: Binding affinity to NAALAD-2 (unknown origin) assessed as inhibition constant.
Series [4] addresses T1, Glutamate carboxypeptidase 2. The experiment in a line: Inhibition of human recombinant PSMA.
In a further series the test system is KB. Nature of the series: Cytotoxicity against human KB cells assessed as reduction in cell growth. Type of series: functional, cell-based.
Series [5] deals with LNCaP. Nature of the series: Cytotoxicity against human LNCaP cells assessed as cell death measured for 24 hrs. It counts as functional, cell-based.
A further series concerns A549. The experiment in a line: Cytotoxicity against human A549 cells assessed as reduction in cell growth. It counts as functional, cell-based.
Series [6] in a line: Cytotoxicity against human PC3-PIP cells. The note with it: PC3-PIP cell.
The nature of series [7]: Cytotoxicity against human PC-3 flu cells assessed as reduction in cell viability incubated for 72 hrs by CCK-8 assay. On the technique in general: Tetrazolium assays rely on reduction of a dye to a coloured formazan, in cell work by metabolically active cells.
The nature of series [8]: Cytotoxicity against human PC3-PIP cells assessed as reduction in cell viability incubated for 72 hrs by CCK-8 assay.
Series [9] in a line: Cytotoxicity against human PC-3 flu cells.
The nature of series [10]: Antitumor activity against human PC3-PIP cells xenografted in […] assessed as reduction in tumor volume at 80 mg/kg, IP. Type of series: functional, PC3-PIP cell.
A further series concerns the target Cathepsin B (Homo sapiens, UniProt P07858). Nature of the series: Inhibition of cathepsin B (unknown origin).
A short description of series [11]: Antiproliferative activity against human PC3-PIP cells assessed as reduction in cell viability incubated for 72 hrs by XTT assay.
Another series relates to CWR22R. The experiment in a line: Cytotoxicity against human 22Rv1 cells assessed as reduction in cell viability incubated for 48 hrs by MTT assay. The following applies: 22Rv1, 48 h. It counts as functional, cell-based.
A short description of series [12]: Cytotoxicity against human HK-2 cells assessed as reduction in cell viability incubated for 48 hrs by MTT assay. It counts as toxicity, cell-based.
The test system of series [13] is LNCaP. The experiment in a line: Cytotoxicity against human LNCaP cells assessed as reduction in cell viability incubated for 72 hrs by MTT assay.
For another series, the system named is DU-145. The experiment in a line: Cytotoxicity against human DU-145 cells assessed as reduction in cell viability incubated for 72 hrs by MTT assay. The note with it: DU-145, 72 h.
Series [14] in a line: Half life in BALB/c mouse at 67 mg/kg by LC-MS/MS analysis. It counts as ADME, organism-based. The note with it: in vivo.

SMILES strings stand for the structures.

Sequence of N-acetylated-alpha-linked acidic dipeptidase 2 (Q9Y3Q0 whole entry): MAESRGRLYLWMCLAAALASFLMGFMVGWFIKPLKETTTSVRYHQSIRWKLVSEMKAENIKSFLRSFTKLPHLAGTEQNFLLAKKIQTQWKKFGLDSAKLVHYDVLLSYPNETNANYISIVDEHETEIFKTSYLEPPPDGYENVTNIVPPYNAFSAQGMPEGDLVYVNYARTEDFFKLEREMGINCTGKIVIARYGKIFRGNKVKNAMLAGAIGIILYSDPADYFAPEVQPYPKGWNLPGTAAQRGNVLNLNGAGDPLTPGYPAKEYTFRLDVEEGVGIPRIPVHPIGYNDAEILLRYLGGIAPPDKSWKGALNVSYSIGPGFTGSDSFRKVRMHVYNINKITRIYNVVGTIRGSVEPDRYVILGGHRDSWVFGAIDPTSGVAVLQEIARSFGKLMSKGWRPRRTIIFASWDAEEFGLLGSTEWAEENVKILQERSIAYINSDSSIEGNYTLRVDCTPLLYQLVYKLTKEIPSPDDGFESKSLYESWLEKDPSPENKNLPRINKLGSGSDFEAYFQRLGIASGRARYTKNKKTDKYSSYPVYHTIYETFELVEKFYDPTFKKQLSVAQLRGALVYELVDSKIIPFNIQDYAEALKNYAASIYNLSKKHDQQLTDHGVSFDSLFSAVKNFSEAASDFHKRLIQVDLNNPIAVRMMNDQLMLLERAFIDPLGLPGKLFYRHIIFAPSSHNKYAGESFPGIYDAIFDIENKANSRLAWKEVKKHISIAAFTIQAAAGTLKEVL

For `NCCCC[C@H](NC(=O)N[C@@H](CCC(=O)O)C(=O)O)C(=O)O`, the Ki in series [1] was 12 nM.
On to `O=C(O)CC[C@H](NC(=O)N[C@@H](CCC(=O)O)C(=O)O)C(=O)O`, for which, in [2], the Ki is 8 nM.
For the compound `O=C(O)CCC(CP(=O)(O)O)C(=O)O` (stereo not given), the Ki in series [3] is ~0.275 nM.
On to `CSC[C@@H](NC(=O)N[C@H](CCC(=O)O)C(=O)O)C(=O)O`, for which the IC50 in series [4] is 15.3 nM.
Consider `CCCC(=O)OCN(C(=O)[C@@H](NC(=O)[C@H]1CCCCN1C)[C@@H](C)CC)[C@H](C[C@@H](OC(C)=O)c1nc(C(=O)N[C@@H](Cc2ccc(O)cc2)C[C@H](C)C(=O)NNC(=O)OCCSSC[C@H](NC(=O)[C@H](CC(=O)O)NC(=O)[C@H](CC(=O)O)NC(=O)Cc2ccc(CNC(=O)NCCCC[C@@H](NC(=O)N[C@H](CCC(=O)O)C(=O)O)C(=O)O)cc2)C(=O)O)cs1)C(C)C`, for which the IC50 is 0.6 nM with KB, ~13 nM in the series with LNCaP [5] and 0.9 nM in the series on A549.
As for `CC[C@@H](C)[C@H]([C@H](CC(=O)N1CCC[C@@H]1[C@@H](OC)[C@H](C)C(=O)N[C@@H](C)[C@H](O)c1ccccc1)OC)N(C)C(=O)[C@H](NC(=O)[C@@H](C(C)C)N(C)C(=O)OCc1ccc(NC(=O)[C@@H](CCCNC(N)=O)NC(=O)[C@@H](NC(=O)CCCCCN2C(=O)CC(SC[C@H](NC(=O)[C@H](CCC(=O)O)NC(=O)[C@H](CCC(=O)O)NC(=O)[C@H](CCC(=O)O)NC(=O)CCCCCNC(=O)[C@H]3CC[C@H](CNC(=O)CC[C@@H](NC(=O)N[C@H](CCC(=O)O)C(=O)O)C(=O)O)CC3)C(=O)NCCCCCC(=O)N[C@@H](CCCCNC(=O)CCCCC[N+]3=C(/C=C/C=C/C=C4/N(C)c5ccc6ccccc6c5C4(C)C)C(C)(C)c4c3ccc3ccccc43)C(=O)O)C2=O)C(C)C)cc1)C(C)C` (stereo not given in full), the IC50 in series [6] was 4.34 nM; in series [7] it was 17 nM; in series [8], 0.84 nM; in series [9], 4.64 nM.
Take `CC[C@@H](C)[C@H]([C@H](CC(=O)N1CCC[C@@H]1[C@@H](OC)[C@H](C)C(=O)N[C@@H](C)[C@H](O)c1ccccc1)OC)N(C)C(=O)[C@@H](NC(=O)[C@H](C(C)C)N(C)C(=O)OCc1ccc(NC(=O)[C@@H](CCCNC(N)=O)NC(=O)[C@H](NC(=O)CCCCCCC(=O)NCCCC[C@@H](NC(=O)N[C@H](CCC(=O)O)C(=O)O)C(=O)O)C(C)C)cc1)C(C)C`: in [10], the Activity amounted to 62.4 mm3. The IC50 against Cathepsin B was ~0.04 nM; in [11], 3.9 nM.
For `CC(=O)O[C@H]1C(=O)[C@@]2(C)[C@H]([C@H](OC(=O)c3ccccc3)[C@]3(O)C[C@H](OC(=O)[C@H](OC(=O)CSSCC(=O)NCCNC(=O)CC[C@@H](NC(=O)N[C@H](CCC(=O)O)C(=O)O)C(=O)O)[C@@H](NC(=O)c4ccccc4)c4ccccc4)C(C)=C1C3(C)C)[C@]1(OC(C)=O)CO[C@@H]1C[C@@H]2O`, the concentration for half-maximal inhibition (IC50) in the series with CWR22R (read-out: IC50) came out at 121 nM. For the same compound, the IC50 at 48 h in [12] is 14.2 nM.
Regarding `CC[C@H](C)[C@@H]([C@@H](CC(=O)N1CCC[C@H]1[C@H](OC)[C@@H](C)C(=O)N[C@H](C)[C@@H](O)c1ccccc1)OC)N(C)C(=O)[C@@H](NC(=O)[C@H](C(C)C)N(C)C(=O)OCc1ccc(NC(=O)[C@H](CCCNC(N)=O)NC(=O)[C@@H](NC(=O)CCCCCN2C(=O)CC(SCCC(=O)NC(Cc3cn(CCOCCNCCCCCCOc4cc(OCCCc5c(C)n[nH]c5C)cc(C(=O)O)c4)nn3)C(=O)NCCCCCC(=O)NCCCC[C@H](NC(=O)N[C@@H](CCC(=O)O)C(=O)O)C(=O)O)C2=O)C(C)C)cc1)C(C)C` (stereo not given in full), the IC50 in the series with LNCaP [13] stood at 5.4 nM; in the series with DU-145 it was 313 nM.
In series [14], `C/C=C(/C)C(=O)O[C@H]1C(C)=C2[C@H]([C@@H]1OC(=O)CCCCCCC)[C@@](C)(OC(C)=O)C[C@H](OC(=O)CCCCCCCCCCCNC(=O)C[C@H](N)C(=O)N[C@@H](CCC(=O)N[C@@H](CCC(=O)N[C@@H](CCC(=O)N[C@@H](CCC(=O)O)C(=O)O)C(=O)O)C(=O)O)C(=O)O)[C@@]1(O)[C@H]2OC(=O)[C@@]1(C)O` [MIPSAGARGIN] had a half-life of 4.9 h.
Consider `CC(=O)O[C@H]1C(=O)[C@@]2(C)[C@H]([C@H](OC(=O)c3ccccc3)[C@]3(O)C[C@H](OC(=O)[C@H](O)[C@@H](NC(=O)c4ccccc4)c4ccccc4)C(C)=C1C3(C)C)[C@]1(OC(C)=O)CO[C@@H]1C[C@@H]2O` [PACLITAXEL], for which, in the series on CWR22R, the half-maximal inhibitory concentration (IC50) stood at 563 nM.
